Measurements: PubChem BioAssay (NCI)
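At the GI50, growth is halved. TGI marks complete inhibition of growth.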

Legend:
Test in all cases: NCI tumour cell line growth inhibition, 384-well format
786-0 renal = system: 786-0 renal
A549 NSCLC = system: A549 NSCLC
ACHN renal = system: ACHN renal
DU-145 prostate = system: DU-145 prostate
EKVX NSCLC = system: EKVX NSCLC
HCC-2998 colon = system: HCC-2998 colon
HCT-116 colon = system: HCT-116 colon
HL-60(TB) leukemia = system: HL-60(TB) leukemia
K-562 leukemia = system: K-562 leukemia
KM12 colon = system: KM12 colon
MCF7 breast = system: MCF7 breast
SR leukemia = system: SR leukemia
SW-620 colon = system: SW-620 colon

| SMILES | GI50 ([…]-0 renal) [µM] | TGI (786-0 renal) [µM] | GI50 (A549 NSCLC) [µM] | TGI (A549 NSCLC) [µM] | GI50 (ACHN renal) [µM] | TGI (ACHN renal) [µM] | GI50 (DU-145 prostate) [µM] | TGI (DU-145 prostate) [µM] | GI50 (EKVX NSCLC) [µM] | TGI (EKVX NSCLC) [µM] | GI50 (HCC-2998 colon) [µM] | TGI (HCC-2998 colon) [µM] | GI50 (HCT-116 colon) [µM] | TGI (HCT-116 colon) [µM] | GI50 (HL-60(TB) leukemia) [µM] | TGI (HL-60(TB) leukemia) [µM] | GI50 (K-562 leukemia) [µM] | TGI (K-562 leukemia) [µM] | GI50 (KM12 colon) [µM] | TGI (KM12 colon) [µM] | also measured |
| --- | --- | --- | --- | --- | --- | --- | --- | --- | --- | --- | --- | --- | --- | --- | --- | --- | --- | --- | --- | --- | --- |
| N#CCC1(n2cc(-c3ncnc4[nH]ccc34)cn2)CN(C2CCN(C(=O)c3ccnc(C(F)(F)F)c3F)CC2)C1 | > 96.4 | > 100 | > 61.3 | > 100 | > 64.7 | > 100 | 97.1 | > 100 | > 70 | > 100 | > 100 | > 100 | > 79.5 | > 100 | > 62 | 97.7 | 34.5 | > 100 | 42.3 | > 100 | GI50 (MCF7 breast): > 71.8 µM; TGI (MCF7 breast): > 100 µM; GI50 (SR leukemia): 23.9 µM; TGI (SR leukemia): 39.4 µM; GI50 (SW-620 colon): > 61.1 µM; TGI (SW-620 colon): > 100 µM |
| CNCc1ccc(-c2[nH]c3cc(F)cc4c3c2CCNC4=O)cc1 | 7.97 | 21.3 | 14.7 | 29.5 | 11.5 | 28.6 | 13.9 | 27.4 | 16.1 | 30.9 | 11.3 | 23.8 | 6.6 | 19.4 | 8.28 | 19.1 | 7.92 | 20.1 | 15.7 | 30.2 | GI50 (MCF7 breast): 6.36 µM; TGI (MCF7 breast): 18.7 µM; GI50 (SR leukemia): 1.54 µM; TGI (SR leukemia): 3.93 µM; GI50 (SW-620 colon): 7.46 µM; TGI (SW-620 colon): 23.6 µM |
